{"source": "patent US20200129482A1", "about": "“TREATMENT OF NON-SMALL CELL LUNG CANCER” (AbbVie Inc., priority 2017, published 2020)", "key": {"[1]": {"tested_on": "NSCLC patients", "assay": "M11-089 clinical trial: survival by LSP status or stemness score, C/P+veliparib vs C/P", "type": "in vivo, human", "conditions": "for median overall survival in LSP- and LSP+ patients / survival (restricted mean survival time, hazard ratio) as a function of LSP status: M11-089; for median overall survival in LSP- and LSP+ patients: C/P+veliparib vs C/P alone, FIG. 2; for survival (restricted mean survival time, hazard ratio) as a function of LSP status: C/P+veliparib vs carboplatin/paclitaxel (C/P), LSP+ vs LSP- patients, FIG. 1 right; for survival in relation to stemness score (mRNAsi): M11-089 samples, stemness score >=0.5 vs <0.5, FIGS. 4 and 5", "text": "(§1) Time to death (overall survival, OS) for a given subject was defined as the number of days from the date that the subject was randomized to the date of the subject's death. All events of death were included, regardless of whether the event occurred while the subject was still taking veliparib/placebo or had previously discontinued veliparib/placebo.\n(§2) Tumor samples for study were from biopsies taken prior to entry onto veliparib clinical trials M10-898 and M11-089. Tumor DNA/RNA was obtained by macrodissecting tumor area (>50% tumor content) from formalin-fixed, paraffin-embedded tumor slides. RNA and DNA was isolated using AllPrep kit (Qiagen).\nRNAseq RPKM data of 52 LSP genes of Table 1 were obtained from sequenced samples of M10-898 clinical trial (https://clinicaltrials.gov/ct2/show/NCT01560104), purchased tissues and M11-089 (https://clinicaltrials.gov/ct2/show/NCT02106546). The RPKM data was log transformed and normalized in order to adjust for batch effects before entering the analyses. Unsupervised Clustering was performed on 52 LSP genes from M10-898 and purchased tissues to form 3 clusters of subtypes (AD (Adenocarcinoma), NE (Neuroendocrine), SQ (Squamous)), according to the consistency of known histology defined biologically distinct subtypes. The 52 LSP genes from M10-898 and purchased tissues together with the AD vs. nonAD labelling from unsupervised clustering is served as the training data. A shrunken centroid classifier is built based on the training data. The final classifier takes normalized RPKM data of 52 LSP genes as input, and outputs the probability of being nonAD subtype (prob (AD)=1-prob (nonAD)) for each RNAseq sample from M11-089. The subtype calls (nonAD vs. AD) is based on the probability strength. The subtype call will be labelled unknown If the absolute logarithm of odds (defined as Prob (nonAD)/Prob (AD)) is less than 0.15.\nFIG. 1 represents the impact of treatment and patient outcome in M10-898 as a function of LSP status in M10-898 (left) and M11-089 (right). Patients were categorized as LSP− or LSP+ using RNA expression as depicted on the x-axis. Patients treated with carboplatin/paclitaxel (C/P) are listed in dotted lines, patients treated with C/P+veliparib (V) are listed in solid lines. The restricted mean survival time was calculated and is represented on the Y-axis.\nSummary statistics for each comparison are shown below FIG. 2.\nWe examined the M11-089 samples to relate the stemness index to survival with Veliparib. In general, an index ranging from 0 to 1 is created for each tumor sample. Tumor cells closer to 1 are more similar to stem cells and more aggressive than tumor cells closer to 0.\nWe derived the stemness score from our samples based on stemness Index Derived using OCLR (mRNAsi) (T. M. Matta, et al., Cell, 2018, 173(2): 338-354), and methodology and code reference is based on the public available information (http://tcgabiolinks.fmrp.usp.br/PanCanStem/mRNAsi.html). The log gene expression for m11-089 is the batch effect corrected combined batch 1,2,3,4 data."}, "[2]": {"tested_on": "NSCLC patients", "assay": "M10-898 clinical trial: survival by LSP status, C/P+veliparib vs C/P", "type": "in vivo, human", "conditions": "C/P+veliparib vs carboplatin/paclitaxel (C/P), FIG. 1 left", "text": "as §1, §2\nRNAseq RPKM data of 52 LSP genes of Table 1 were obtained from sequenced samples of M10-898 clinical trial (https://clinicaltrials.gov/ct2/show/NCT01560104), purchased tissues and M11-089 (https://clinicaltrials.gov/ct2/show/NCT02106546). The RPKM data was log transformed and normalized in order to adjust for batch effects before entering the analyses. […]\nFIG. 1 represents the impact of treatment and patient outcome in M10-898 as a function of LSP status in M10-898 (left) and M11-089 (right). […] The restricted mean survival time was calculated and is represented on the Y-axis."}}, "note": "Entries after “also recorded” stand apart in the source; their conditions may differ."}
{"compound": "C[C@]1(c2nc3c(C(N)=O)cccc3[nH]2)CCCN1", "note": "[Veliparib, veliparib]", "values": [{"measurement": "median overall survival in LSP- and LSP+ patients", "setting": "[1]", "result": "statistically significant survival advantage only in the LSP+ population"}, {"measurement": "median overall survival in LSP- and LSP+ patients", "setting": "[1]; listed as veliparib", "result": "increased Overall Survival (OS) observed in LSP positive NSCLC patients"}, {"measurement": "survival (restricted mean survival time, hazard ratio) as a function of LSP status", "setting": "[1]", "result": "statistically significant survival advantage only in the LSP+ population"}, {"measurement": "survival (restricted mean survival time, hazard ratio) as a function of LSP status", "setting": "[1]; listed as veliparib", "result": "benefit observed in signature subgroup"}, {"measurement": "survival in relation to stemness score (mRNAsi)", "setting": "[1]", "result": "better survival"}, {"measurement": "survival in relation to stemness score (mRNAsi)", "setting": "[1]; listed as veliparib", "result": "better survival; also recorded: provides a benefit to subgroup of patients"}, {"measurement": "survival (restricted mean survival time, hazard ratio) as a function of LSP status", "setting": "[2]", "result": "statistically significant survival advantage only in the LSP+ population"}, {"measurement": "survival (restricted mean survival time, hazard ratio) as a function of LSP status", "setting": "[2]; listed as veliparib", "result": "benefit observed in signature subgroup"}]}
